Measurements taken from patent US20230322723A1, “COMPOUNDS FOR SUPPRESSING EGFR MUTANT CANCER AND PHARMACEUTICAL USE THEREOF” (J2H BIOTECH INC., priority 2020, published 2023).

Legend:
[1] = Pharmacokinetic evaluation after single oral administration to ICR mice; type: in vivo; settings: for half-life / AUC(0-t): mouse, ICR mice, single oral dose 5 mg/kg, plasma; for AUC(0-t): read-out: AUC0-24
Method: Pharmacokinetic tests for the compounds of the present invention were conducted as below. After a single oral administration of the compound of the present invention to ICR mice, the concentration of the compound over time was followed up and analyzed.
The compound of the present invention was suspended in 10% DMSO/90% (30% HPbCD aqueous solution) and orally administered to mice at a dose of 5 mg/kg. Blood was collected at a fixed time and plasma was separated. Drug analysis was performed using HPLC (XBridge column C18, Waters, mobile phase 0.1% formic acid:acetonitrile (30:70, %/%)) and MS/MS (ESI positive, MRM). Mouse blood plasma and each commercially available standard solution were mixed at a ratio of 9:1 to prepare and calibrate at concentrations of […] 5,000 ng/mL. In addition, the preparation of QC samples was prepared by mixing the mouse blood plasma and the standard solution for QC at a ratio of 9:1, and prepared to be concentrations of 100, 750 and 2,500 ng/mL. 100 μL of the plasma sample was transferred to a centrifugation tube, and 10 μL of the internal standard solution and 300 μL of methanol were added, followed by mixing for about 30 seconds for pretreatment. The tube was centrifuged at 3,000×g (4° C.) for about 5 minutes, and the supernatant was taken and transferred to an LC vial and injected into the instrument. Then, the concentration of the compound in mouse plasma was quantified by applying a previously validated assay. For pharmacokinetic parameters, the program WinNonlin 5.2 (Pharsight, USA) was used. AUC0-t, AUC0-∞, Cmax, Tmax, and t1/2 were calculated by Noncompartment modeling (best fit). The pharmacokinetic parameter results were expressed as the mean (Mean) and standard deviation (SD), and were statistically processed using the SPSS program (Statistical Package for the Social Sciences, 10.0K, USA).

EGFR^L858R+T790M+C797S = biological target: T1, EGFR^L858R+T790M+C797S (Homo sapiens, UniProt P00533, C797S/L858R/T790M); assay: EGFR protein degradation test (Western blot) in Ba/F3 cells expressing mutant EGFR L858R+T790M+C797S (LTC); type: cell-based; settings: compounds at 0.1 μM and 1 μM, 24 hours, Western blot with EGFR antibody
T1 construct: expressed in transfected cells; host or cells: Ba/F3
T1 sequence (P00533 25-1210 T790M/C797S/L858R): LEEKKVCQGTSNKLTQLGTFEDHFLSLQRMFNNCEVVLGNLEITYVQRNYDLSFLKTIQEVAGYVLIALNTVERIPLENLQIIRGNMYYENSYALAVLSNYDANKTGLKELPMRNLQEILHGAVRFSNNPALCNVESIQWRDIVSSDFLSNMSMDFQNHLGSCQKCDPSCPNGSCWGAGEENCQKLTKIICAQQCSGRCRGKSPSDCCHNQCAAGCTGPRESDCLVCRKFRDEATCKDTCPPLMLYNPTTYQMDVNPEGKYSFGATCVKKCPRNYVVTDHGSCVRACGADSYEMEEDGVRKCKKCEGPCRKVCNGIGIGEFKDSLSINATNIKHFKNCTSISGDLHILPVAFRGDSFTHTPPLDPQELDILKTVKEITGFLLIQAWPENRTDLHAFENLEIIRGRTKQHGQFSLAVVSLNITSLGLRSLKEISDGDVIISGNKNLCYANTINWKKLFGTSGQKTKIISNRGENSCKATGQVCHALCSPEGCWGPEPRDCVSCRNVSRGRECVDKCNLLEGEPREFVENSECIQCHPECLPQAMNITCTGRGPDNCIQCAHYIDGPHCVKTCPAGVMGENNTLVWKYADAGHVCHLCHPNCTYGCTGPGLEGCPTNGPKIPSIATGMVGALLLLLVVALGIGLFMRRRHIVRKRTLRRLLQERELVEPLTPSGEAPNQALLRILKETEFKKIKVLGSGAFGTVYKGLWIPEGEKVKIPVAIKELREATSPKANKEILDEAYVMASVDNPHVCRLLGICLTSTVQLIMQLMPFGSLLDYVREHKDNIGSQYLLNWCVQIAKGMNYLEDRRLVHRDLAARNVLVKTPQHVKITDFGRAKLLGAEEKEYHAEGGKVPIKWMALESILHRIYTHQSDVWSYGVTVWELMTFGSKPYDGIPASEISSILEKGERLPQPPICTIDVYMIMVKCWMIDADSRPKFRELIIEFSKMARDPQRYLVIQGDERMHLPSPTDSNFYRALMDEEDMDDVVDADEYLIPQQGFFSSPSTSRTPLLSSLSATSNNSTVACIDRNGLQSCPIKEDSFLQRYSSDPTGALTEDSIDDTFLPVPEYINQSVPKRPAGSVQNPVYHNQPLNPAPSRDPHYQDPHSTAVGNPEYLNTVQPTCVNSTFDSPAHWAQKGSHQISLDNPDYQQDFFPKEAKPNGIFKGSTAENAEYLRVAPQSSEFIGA
Summary of the method: (§1)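 Ba/F3 cells expressing wild-type EGFR, del19+T790M+C797S or L858R+T790M+C797S EGFR were treated with compound at 0.1 μM and 1 μM for 24 h. Lysates (30 μg) were analysed by SDS-PAGE and EGFR Western blot, with bands quantified densitometrically.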

EGFR^del19+T790M+C797S = assay: EGFR protein degradation test (Western blot) in Ba/F3 cells expressing mutant EGFR del19+T790M+C797S (DTC); type: cell-based; settings: compounds at 0.1 μM and 1 μM, 24 hours, Western blot with EGFR antibody
Summary of the method: as §1

SMILES	half-life [1]	AUC(0-t) [1]	LTC (EGFR^L858R+T790M+C797S) protein degradation (EGFR^L858R+T790M+C797S)	DTC (EGFR^del19+T790M+C797S) protein degradation (EGFR^del19+T790M+C797S)	AUC compared to the corresponding compounds ([1]; 69, 70, 75, 78, 82 vs compounds 53 and 65)
COc1cc(N2CCC(CN3CCN(c4ccc5c(c4)C(=O)N(C4CCC(=O)NC4=O)C5=O)CC3)CC2)c(C)cc1Nc1ncc(Cl)c(Nc2ccccc2N(C)S(C)(=O)=O)n1 (centres unmarked) [Compound 79, N-(2-((5-chloro-2-((4-(4-((4-(2-(2,6-dioxopiperidin-3-yl)-1,3-dioxoisoindolin-5-yl)piperazin-1-yl)methyl)piperidin-1-yl)-2-methoxy-5-methylphenyl)amino)pyrimidin-4-yl)amino)phenyl)-N-methylmethanesulfonamide]	3.47 h	1130 ng·h/mL	+ (Protein degradation 20~80%)	− (Protein degradation < 20%)	–
COc1cc(N2CCN(CC3CCN(C(=O)[C@H](C)Oc4cccc5c4C(=O)N(C4CCC(=O)NC4=O)C5=O)CC3)CC2)c(C)cc1Nc1ncc(Cl)c(Nc2ccccc2N(C)S(C)(=O)=O)n1 (stereo partly drawn) [Compound 82, N-(2-((5-chloro-2-((4-(4-((1-((2S)-2-((2-(2,6-dioxopiperidin-3-yl)-1,3-dioxoisoindolin-4-yl)oxy)propanoyl)piperidin-4-yl)methyl)piperazin-1-yl)-2-methoxy-5-methylphenyl)amino)pyrimidin-4-yl)amino)phenyl)-N-methylmethanesulfonamide]	6.03 h	366 ng·h/mL	++ (Protein degradation > 80%)	++ (Protein degradation > 80%)	significantly improved AUC
COc1cc(N2CCN(CC3CCN(CC(=O)Nc4cccc5c4CN(C4CCC(=O)NC4=O)C5=O)CC3)CC2)ccc1Nc1ncc(Cl)c(Nc2ccccc2N(C)S(C)(=O)=O)n1 (centres unmarked) [Compound 26, 2-(4-((4-(4-((5-chloro-4-((2-(N-methylmethylsulfonamido)phenyl)amino)pyrimidin-2-yl)amino)-3-methoxyphenyl)piperazin-1-yl)methyl)piperidin-1-yl)-N-(2-(2,6-dioxopiperidin-3-yl)-1-oxoisoindolin-4-yl)acetamide]	9.29 h	32 ng·h/mL	++ (Protein degradation > 80%)	++ (Protein degradation > 80%)	–
COc1cc(N2CCC(CN3CCN(CC(=O)N[C@H](C(=O)N4C[C@H](O)CC4C(=O)NCc4ccc(-c5scnc5C)cc4)C(C)(C)C)CC3)CC2)ccc1Nc1ncc(Cl)c(Nc2ccccc2N(C)S(C)(=O)=O)n1 (stereo in doubt) [Compound 27, (2R,4R)-1-((S)-2-(2-(4-((1-(4-((5-chloro-4-((2-(N-methylmethylsulfonamido)phenyl)amino)pyrimidin-2-yl)amino)-3-methoxyphenyl)piperidin-4-yl)methyl)piperazin-1-yl)acetamido)-3,3-dimethylbutanoyl)-4-hydroxy-N-(4-(4-methylthiazol-5-yl)benzyl)pyrrolidin-2-carboxamide]	8.89 h	68 ng·h/mL	++ (Protein degradation > 80%)	++ (Protein degradation > 80%)	–
